Measurements: patent US20230054333A1, “Herbicide Combinations Comprising Glufosinate and Saflufenacil” (BASF SE, priority 2020, published 2023)

Tests used:
Details in all cases: visual scale 0 to 100, mean of three replications
[1] = tested on: Palmer amaranth; test: Greenhouse post emergence treatment, visual herbicidal activity against Palmer amaranth; format: in vivo, Amaranthus palmeri
Text: (§1) Synergism can be described as an interaction where the combined effect of two or more compounds is greater than the sum of the individual effects of each of the compounds. The presence of a synergistic effect in terms of percent control, between two mixing partners (X and Y) can be calculated using the Colby equation (Colby, S. R., 1967, Calculating Synergistic and Antagonistic Responses in Herbicide Combinations, Weeds, 15, 21-22):
(§2) When the observed combined control effect is greater than the expected (calculated) combined control effect (E), then the combined effect is synergistic.
(§3) Weeds included Palmer aamaranth (Amaranthus palmen) and crop plants included soybean (Glycine max) with glufosinate tolerance (Liberty Link, BASF) or glyphosate tolerance (Roundup Ready, Bayer). However, the herbicidal effect afforded by the compounds, mixtures or compositions is not limited to these species. The analysis of synergism or antagonism between the mixtures or compositions was determined using Colby's equation.
(§4) Pots with 0.3 L of volume were filled with soil (SunGro Horticulture, Agawam, MA 01001) to grow one plant per pot in the greenhouse until the desired developmental stage. […] During this time, the plants were tended, and their response to the individual treatments was evaluated. […]

[2] = tested on: LibertyLink Soybean; test: Greenhouse post emergence treatment, visual herbicidal activity against LibertyLink soybean; format: in vivo, Glycine max
Text: as §1, §2, §3, §4

[3] = tested on: Roundup Ready Soybean; test: Greenhouse post emergence treatment, visual herbicidal activity against Roundup Ready soybean; format: in vivo, Glycine max
Text: as §1, §2, §3, §4

SMILES	Herbicidal activity against Palmer amaranth (2 DAT) Found ([1]; Glufosinate 280 g ai/ha)	Herbicidal activity against LibertyLink Soybean (2 DAT) Found ([2]; Glufosinate 280 g ai/ha)	Herbicidal activity against Roundup Ready Soybean (2 DAT) Found ([3]; Glufosinate 280 g ai/ha)	Herbicidal activity against Palmer amaranth (2 DAT) Found ([1]; Saflufenacil 1 g ai/ha)	Herbicidal activity against LibertyLink Soybean (2 DAT) Found ([2]; Saflufenacil 1 g ai/ha)	Herbicidal activity against Roundup Ready Soybean (2 DAT) Found ([3]; Saflufenacil 1 g ai/ha)
CP(=O)(O)CCC(N)C(=O)O (racemic) [Glufosinate, (2RS)-2-amino-4-[hydroxy(methyl)phosphinoyl]butyric acid]	20	5	35			
CC(C)N(C)S(=O)(=O)NC(=O)c1cc(-n2c(=O)cc(C(F)(F)F)n(C)c2=O)c(F)cc1Cl [Saflufenacil]				4	1	0
